From US20160208246A1, “COMPOSITIONS AND METHODS FOR TREATING A HEMATOLOGICAL MALIGNANCY ASSOCIATED WITH AN ALTERED RUNX1 ACTIVITY OR EXPRESSION” (YEDA RESEARCH AND DEVELOPMENT CO. LTD., priority 2013, published 2016)
Residues, ends and D or L forms follow the SMILES beside them. *: point of attachment. Cbz = O=C(OCc1ccccc1)*; CH2F = FC*

Assays:
Kasumi-1 cells = test: Cell cycle analysis (Propidium iodide, FACS); assay type: cell-based, human; details: 50 μM, 24 hrs, three days post siRNA-delivery
Text: FIGS. 1B and 1C illustrate cell cycle analysis 8 days post transfection with either RUNX1-targeting (SEQ ID NO: 52) or control non-targeting (NT) siRNA. FIG. 1B illustrates cells which were subjected to two successive transfections (at days 0 and 4) with either RUNX1-targeting or NT siRNA. Propidium iodide (PI) was used to assess cellular DNA content by FACS analysis. Bar numbers indicate the relative size (in %) of labeled population out of total cells. Indicated cell cycle phases: subG1; G1; S and G2M; and FIG. 1C are histograms summarizing the distribution of cell population as analyzed in FIG. 1B. Data represents mean±STDV values of five independent experiments.
FIG. 1H illustrates that caspase inhibition rescues Kasumi-1^RX1-KD from apoptosis. […] Histograms show the distribution of cells among cell cycle phases determined as detailed above. […]
FIGS. 2C-2G illustrate that KD of A-E rescues Kasumi-1 cells from RUNX1 KD-induced apoptosis. […] FIGS. 2C-2F, following incubation for 8 days, cells were stained with PI and analyzed by FACS for cell cycle; and FIG. 2G are histograms showing the distribution of cells among cell cycle phases. […]
For cell cycle analysis, cells were stained with Propidium iodide (Sigma-Aldrich) according to standard procedure. […] All data were collected using LSRII flow cytometer (BD Biosciences) and analyzed by FlowJo software.

RUNX1 = test: siRNA-mediated RUNX1 KD in Kasumi-1 cells (RT-qPCR, Western blotting); assay type: cell-based, human; details: Western blot, 50 μM, 24 hrs after 72 hrs siRNA
Text: FIG. 1A, upper panel, is a schematic illustration of RUNX1 (blue) and RUNX1-ETO (A-E) (blue-red) transcripts indicating regions targeted by the siRNAs used to knock down (KD) expression of either RUNX1 (bars underneath RUNX1 marked in green and orange) or A-E (black bar underneath A-E fusion region). […] NO: 49) (as marked in green in the upper panel). Total RNA isolated 24 hrs post electroporation of RUNX1-targeting or non-targeting (NT) control siRNA. Data shown represent mean expression±SE. Shown are results from one of three experiments with the same findings. Primers used for RT-qPCR are presented in Table 1 (in the Examples section which follows). […] Blots were reacted with an antibody (Ab) against RUNX1-N-terminus or Lamin. Results from one of two experiments with the same findings are shown. […] KD efficiency was assessed both by RT-qPCR and immunoblotting. […] Cells were collected, washed once in PBS, and nuclear proteins were extracted and analyzed by Western blotting as previously described [Aziz-Aloya, R. et al., Cell Death (1998) 5, 765-773]. […] Quantitation of cDNAs was performed by qPCR using Roche LC480 LightCycler with sequence-specific primers (Table 1, below) and miScript SYBR Green PCR kit (QIAGEN). Target transcript quantification was calculated relative to ACTB mRNA, which served as an internal control. Standard errors were calculated using REST.

COC(=O)C[C@H](NC(=O)[C@H](C)NC(=O)[C@@H](NC(=O)OCc1ccccc1)C(C)C)C(=O)CF [Z-VAD-FMK] (Cbz-Val-Ala-Asp(OMe)-CH2F)
apoptosis in Kasumi-1^RX1-KD cells (Kasumi-1 cells): completely blocked apoptosis
subG1 fraction of Kasumi-1^RX1-KD cells (Kasumi-1 cells): profound decrease
RUNX1 protein levels in Kasumi-1^RX1-KD cells (RUNX1): further reduced
